Laboratory results: ChEMBL document CHEMBL1649216, “The diarylquinoline R207910 is bactericidal against Mycobacterium leprae in mice at low dose and administered intermittently” (Antimicrob Agents Chemother, 2009)
Calls of active or inactive are those of the source.

Key:
Format in all cases: functional, organism-based
Mycobacterium leprae [1] = experiment: Antimycobacterial activity against Mycobacterium leprae infected in CBA/J mouse assessed as microbial growth inhibition at 120 mg/kg, po administered once monthly during logarithmic multiplication from day 60 to day 150 post infection measured on day 228 post infection; parameters: dose 120 mg/kg
Mycobacterium leprae [2] = experiment: Antimycobacterial activity against Mycobacterium leprae infected in CBA/J mouse assessed as microbial growth inhibition at 30 mg/kg, po administered once weekly during logarithmic multiplication from day 60 to day 150 post infection measured on day 302 to 365 post infection; parameters: dose 30 mg/kg
Mycobacterium leprae [3] = experiment: Antimycobacterial activity against Mycobacterium leprae infected in CBA/J mouse assessed as microbial growth inhibition at 50 mg/kg, po administered once weekly during logarithmic multiplication from day 60 to day 150 post infection measured on day 302 to 365 post infection; parameters: dose 50 mg/kg
Mycobacterium leprae [4] = experiment: Antimycobacterial activity against Mycobacterium leprae infected in CBA/J mouse assessed as microbial growth inhibition at 100 mg/kg, po administered once weekly during logarithmic multiplication from day 60 to day 150 post infection measured on day 302 to 365 post infection; parameters: dose 100 mg/kg
Mycobacterium leprae [5] = experiment: Antimycobacterial activity against Mycobacterium leprae infected in CBA/J mouse assessed as microbial growth inhibition at 50 mg/kg, po administered once monthly during logarithmic multiplication from day 60 to day 150 post infection measured on day 302 to 365 post infection; parameters: dose 50 mg/kg
Mycobacterium leprae [6] = experiment: Antimycobacterial activity against Mycobacterium leprae infected in CBA/J mouse assessed as microbial growth inhibition at 120 mg/kg, po administered once monthly during logarithmic multiplication from day 60 to day 150 post infection measured on day 302 to 365 post infection; parameters: dose 120 mg/kg
Mycobacterium leprae [7] = experiment: Antimycobacterial activity against Mycobacterium leprae infected in CBA/J mouse assessed as microbial growth inhibition at 1 mg/kg, po administered 5 times weekly during logarithmic multiplication from day 60 to day 150 post infection measured on day 152 post infection; parameters: dose 1 mg/kg
Mycobacterium leprae [8] = experiment: Antimycobacterial activity against Mycobacterium leprae infected in CBA/J mouse assessed as microbial growth inhibition at 3 mg/kg, po administered 5 times weekly during logarithmic multiplication from day 60 to day 150 post infection measured on day 152 post infection; parameters: dose 3 mg/kg
Mycobacterium leprae [9] = experiment: Antimycobacterial activity against Mycobacterium leprae infected in CBA/J mouse assessed as microbial growth inhibition at 6 mg/kg, po administered 5 times weekly during logarithmic multiplication from day 60 to day 150 post infection measured on day 152 post infection; parameters: dose 6 mg/kg
Mycobacterium leprae [10] = experiment: Antimycobacterial activity against Mycobacterium leprae infected in CBA/J mouse assessed as microbial growth inhibition at 12.5 mg/kg, po administered 5 times weekly during logarithmic multiplication from day 60 to day 150 post infection measured on day 152 post infection; parameters: dose 12.5 mg/kg
Mycobacterium leprae [11] = experiment: Antimycobacterial activity against Mycobacterium leprae infected in CBA/J mouse assessed as microbial growth inhibition at 25 mg/kg, po administered 5 times weekly during logarithmic multiplication from day 60 to day 150 post infection measured on day 152 post infection; parameters: dose 25 mg/kg
Mycobacterium leprae [12] = experiment: Antimycobacterial activity against Mycobacterium leprae infected in CBA/J mouse assessed as microbial growth inhibition at 25 mg/kg, po administered once weekly during logarithmic multiplication from day 60 to day 150 post infection measured on day 152 post infection; parameters: dose 25 mg/kg
Mycobacterium leprae [13] = experiment: Antimycobacterial activity against Mycobacterium leprae infected in CBA/J mouse assessed as microbial growth inhibition at 30 mg/kg, po administered once weekly during logarithmic multiplication from day 60 to day 150 post infection measured on day 152 post infection; parameters: dose 30 mg/kg
Mycobacterium leprae [14] = experiment: Antimycobacterial activity against Mycobacterium leprae infected in CBA/J mouse assessed as microbial growth inhibition at 50 mg/kg, po administered once weekly during logarithmic multiplication from day 60 to day 150 post infection measured on day 152 post infection; parameters: dose 50 mg/kg
Mycobacterium leprae [15] = experiment: Antimycobacterial activity against Mycobacterium leprae infected in CBA/J mouse assessed as microbial growth inhibition at 100 mg/kg, po administered once weekly during logarithmic multiplication from day 60 to day 150 post infection measured on day 152 post infection; parameters: dose 100 mg/kg
Mycobacterium leprae [16] = experiment: Antimycobacterial activity against Mycobacterium leprae infected in CBA/J mouse assessed as microbial growth inhibition at 25 mg/kg, po administered once monthly during logarithmic multiplication from day 60 to day 150 post infection measured on day 152 post infection; parameters: dose 25 mg/kg
Mycobacterium leprae [17] = experiment: Antimycobacterial activity against Mycobacterium leprae infected in CBA/J mouse assessed as microbial growth inhibition at 50 mg/kg, po administered once monthly during logarithmic multiplication from day 60 to day 150 post infection measured on day 152 post infection; parameters: dose 50 mg/kg
Mycobacterium leprae [18] = experiment: Antimycobacterial activity against Mycobacterium leprae infected in CBA/J mouse assessed as microbial growth inhibition at 100 mg/kg, po administered once monthly during logarithmic multiplication from day 60 to day 150 post infection measured on day 152 post infection; parameters: dose 100 mg/kg
Mycobacterium leprae [19] = experiment: Antimycobacterial activity against Mycobacterium leprae infected in CBA/J mouse assessed as microbial growth inhibition at 120 mg/kg, po administered once monthly during logarithmic multiplication from day 60 to day 150 post infection measured on day 152 post infection; parameters: dose 120 mg/kg
Mycobacterium leprae [20] = experiment: Antimycobacterial activity against Mycobacterium leprae infected in CBA/J mouse assessed as microbial growth inhibition at 1 mg/kg, po administered 5 times weekly during logarithmic multiplication from day 60 to day 150 post infection measured on day 228 post infection; parameters: dose 1 mg/kg
Mycobacterium leprae [21] = experiment: Antimycobacterial activity against Mycobacterium leprae infected in CBA/J mouse assessed as microbial growth inhibition at 3 mg/kg, po administered 5 times weekly during logarithmic multiplication from day 60 to day 150 post infection measured on day 228 post infection; parameters: dose 3 mg/kg
Mycobacterium leprae [22] = experiment: Antimycobacterial activity against Mycobacterium leprae infected in CBA/J mouse assessed as microbial growth inhibition at 6 mg/kg, po administered 5 times weekly during logarithmic multiplication from day 60 to day 150 post infection measured on day 228 post infection; parameters: dose 6 mg/kg
Mycobacterium leprae [23] = experiment: Antimycobacterial activity against Mycobacterium leprae infected in CBA/J mouse assessed as microbial growth inhibition at 12.5 mg/kg, po administered 5 times weekly during logarithmic multiplication from day 60 to day 150 post infection measured on day 228 post infection; parameters: dose 12.5 mg/kg
Mycobacterium leprae [24] = experiment: Antimycobacterial activity against Mycobacterium leprae infected in CBA/J mouse assessed as microbial growth inhibition at 25 mg/kg, po administered 5 times weekly during logarithmic multiplication from day 60 to day 150 post infection measured on day 228 post infection; parameters: dose 25 mg/kg
Mycobacterium leprae [25] = experiment: Antimycobacterial activity against Mycobacterium leprae infected in CBA/J mouse assessed as microbial growth inhibition at 25 mg/kg, po administered once weekly during logarithmic multiplication from day 60 to day 150 post infection measured on day 228 post infection; parameters: dose 25 mg/kg
Mycobacterium leprae [26] = experiment: Antimycobacterial activity against Mycobacterium leprae infected in CBA/J mouse assessed as microbial growth inhibition at 30 mg/kg, po administered once weekly during logarithmic multiplication from day 60 to day 150 post infection measured on day 228 post infection; parameters: dose 30 mg/kg
Mycobacterium leprae [27] = experiment: Antimycobacterial activity against Mycobacterium leprae infected in CBA/J mouse assessed as microbial growth inhibition at 50 mg/kg, po administered once weekly during logarithmic multiplication from day 60 to day 150 post infection measured on day 228 post infection; parameters: dose 50 mg/kg
Mycobacterium leprae [28] = experiment: Antimycobacterial activity against Mycobacterium leprae infected in CBA/J mouse assessed as microbial growth inhibition at 100 mg/kg, po administered once weekly during logarithmic multiplication from day 60 to day 150 post infection measured on day 228 post infection; parameters: dose 100 mg/kg
Mycobacterium leprae [29] = experiment: Antimycobacterial activity against Mycobacterium leprae infected in CBA/J mouse assessed as microbial growth inhibition at 25 mg/kg, po administered once monthly during logarithmic multiplication from day 60 to day 150 post infection measured on day 228 post infection; parameters: dose 25 mg/kg
Mycobacterium leprae [30] = experiment: Antimycobacterial activity against Mycobacterium leprae infected in CBA/J mouse assessed as microbial growth inhibition at 50 mg/kg, po administered once monthly during logarithmic multiplication from day 60 to day 150 post infection measured on day 228 post infection; parameters: dose 50 mg/kg
Mycobacterium leprae [31] = experiment: Antimycobacterial activity against Mycobacterium leprae infected in CBA/J mouse assessed as microbial growth inhibition at 100 mg/kg, po administered once monthly during logarithmic multiplication from day 60 to day 150 post infection measured on day 228 post infection; parameters: dose 100 mg/kg

Measured: growth inhibition (GI)

COc1nc2ccc(Br)cc2cc1[C@@H](c1ccccc1)[C@@](O)(CCN(C)C)c1cccc2ccccc12
active: all assays above
